Results taken from patent publication EP4268823A1, “COMPOUND FOR TREATING NEUROINFLAMMATION” (Universitätsklinikum Hamburg-Eppendorf, priority 2022, dated 2023).

Columns and labels:
[1] = test system: glutathione; experiment: GSH-Glo glutathione measurement after glutamate; format: cell-based, mouse; conditions: primary cortical neurons, glutamate 2 hours, UNC0642-treated
Experimental: (§1) For primary cortical cultures pregnant C57BL/6J, or G9afl/fl;Snap25-Cre mice were euthanized. To ensure comparability between genotypes, only embryos from heterozygous breeding's were used. Brainstem tissue of each embryo for genotyping was reserved and cortices were isolated, dissociated and cells were plated at a density of 1 × 10^5 cells per 1 cm^2 on poly-D-lysine-coated wells (5 µM Sigma-Aldrich, cat. no. A-003-M). If not stated otherwise, cells were maintained in neurobasal plus medium (supplemented with B27 plus, penicillin, streptomycin and L-glutamine; Gibco, cat. no. A3582901) at 37°C, 5% CO^2 and a relative humidity of 98%, and treated with 1 µM cytarabine (Sigma-Aldrich, cat. no. BP383) at 1 day in vitro (div) to inhibit glial cell proliferation. If no cytarabine was applied cells were maintained in PNBM medium (supplemented with neural cell survival factor, gentamycin and L-glutamine; Lonza). Throughout, cultures after 14-23 div were used for experiments. G9a inhibitor UNC0642 was used in a concentration of 1 µM and cultures were pre-treated 24 hours before further experimental procedures.
GSH-Glo Glutathione assay (Promega) was used as described by the manufacturer. Primary cortical neurons were cultured in a 96-well plate and stimulated with glutamate for 2 hours. […] After 15 min, luminescence was detected at a Spark 10M multimode microplate reader (Tecan).

[2] = target: T1, G9a (Mus musculus, UniProt Q9Z148); experiment: Flow cytometry of H3K9me2 in spinal cord neuronal nuclei of EAE mice; format: in vivo; conditions: EAE animals, 5 mg kg-1 UNC0642
T1 construct: UNC0642 pre-treated primary neuronal cultures compared to respective controls; endogenous in cells; host or cells: primary mouse cortical neuronal cultures (C57BL/6J embryos)
T1 sequence (Q9Z148 1-1263): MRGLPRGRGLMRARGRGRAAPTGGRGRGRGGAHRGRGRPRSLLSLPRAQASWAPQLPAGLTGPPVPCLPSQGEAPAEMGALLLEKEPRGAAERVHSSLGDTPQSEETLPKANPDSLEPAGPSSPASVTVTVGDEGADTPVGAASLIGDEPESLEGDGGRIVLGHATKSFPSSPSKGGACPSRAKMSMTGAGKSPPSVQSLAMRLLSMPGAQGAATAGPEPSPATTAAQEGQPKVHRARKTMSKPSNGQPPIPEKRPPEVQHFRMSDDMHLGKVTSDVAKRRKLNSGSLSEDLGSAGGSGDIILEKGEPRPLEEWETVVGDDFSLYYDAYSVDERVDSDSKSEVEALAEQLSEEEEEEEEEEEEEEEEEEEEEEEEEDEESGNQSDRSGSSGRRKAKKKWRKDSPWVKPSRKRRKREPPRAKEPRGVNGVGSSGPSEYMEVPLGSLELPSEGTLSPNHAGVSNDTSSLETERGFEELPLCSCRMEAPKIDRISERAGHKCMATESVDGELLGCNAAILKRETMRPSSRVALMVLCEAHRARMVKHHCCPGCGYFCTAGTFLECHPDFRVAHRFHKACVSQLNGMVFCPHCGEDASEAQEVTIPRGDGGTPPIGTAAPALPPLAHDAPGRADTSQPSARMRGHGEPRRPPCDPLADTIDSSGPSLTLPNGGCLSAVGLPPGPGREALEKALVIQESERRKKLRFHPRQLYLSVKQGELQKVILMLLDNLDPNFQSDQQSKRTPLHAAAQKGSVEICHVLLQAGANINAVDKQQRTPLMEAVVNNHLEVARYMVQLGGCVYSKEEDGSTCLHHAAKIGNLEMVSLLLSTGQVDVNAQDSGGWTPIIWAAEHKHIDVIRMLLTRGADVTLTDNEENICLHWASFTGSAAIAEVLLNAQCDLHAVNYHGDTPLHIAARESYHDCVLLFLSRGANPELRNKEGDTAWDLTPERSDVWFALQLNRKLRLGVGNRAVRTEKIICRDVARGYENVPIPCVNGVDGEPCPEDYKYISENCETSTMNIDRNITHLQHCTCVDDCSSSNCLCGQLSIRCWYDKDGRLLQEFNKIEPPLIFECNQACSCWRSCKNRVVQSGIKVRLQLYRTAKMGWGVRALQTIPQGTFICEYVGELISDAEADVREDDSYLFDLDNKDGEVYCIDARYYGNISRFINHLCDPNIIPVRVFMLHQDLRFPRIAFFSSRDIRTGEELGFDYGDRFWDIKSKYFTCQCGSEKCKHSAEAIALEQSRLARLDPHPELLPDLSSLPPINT

[3] = test system: primary neuronal cultures; experiment: Cytosolic calcium imaging of H2O2-exposed neuronal cultures; format: cell-based, mouse; conditions: acute hydrogen peroxide stimulation, UNC0642 vs. DMSO
Experimental: as §1, with “Throughout, cultures after 14-23 div were used for experiments. G9a inhibitor UNC0642 was used in a concentration of 1 µM and cultures were pre-treated 24 hours before further experimental procedures.” left out
Primary neuronal cultures were seeded on Ibidi 60 µ-Dish Quad (cat. No. 80411) plates. […] Before applying the indicated chemicals, 5-10 min of baseline activity was first recorded. […] For data analysis, mean fluorescence values of every cell were measured using Fiji software (NIH) and normalized to the maximal calcium response after ionomycin challenge. For each cell, mean AUC of the calcium response was calculated using a custom R script.

SMILES: COc1cc2c(NC3CCN(C(C)C)CC3)nc(N3CCC(F)(F)CC3)nc2cc1OCCCN1CCCC1 [UNC0642, 2-(4,4-difluoropiperidin-1-yl)-6-methoxy-N-[1-(propan-2-yl)piperidin-4-yl]-7-[3-(pyrrolidin-1-yl)propoxy]quinazolin-4-amine]
- glutathione levels [1]: partial rescue of glutathione levels
- H3K9me2 levels in neuronal nuclei [2]: complete normalization of H3K9me2 levels
- hydrogen peroxide-induced calcium overload [3]: rescued hydrogen peroxide-induced calcium overload
